The target of assay [1] is T1, GST-human KRas166 (G12V) GPPNHP (Homo sapiens, UniProt P01116, G12V). Briefly: KRas small-molecule screening by SPR (BIACORE T200). It counts as binding. Also on record: KRAS166 (G12V) was immobilized between 10,000 to 15,000 Response Units; made in house; host or cells: E. coli C41(DE3). Conditions: compounds at final concentration of 100 uM; immobilised KRAS166 (G12V) GPPNHP; no unit printed (method speaks of response units). The protocol: (§1) For SPR assays pGEX-KRAS(G12V) plasmid was transformed into E. coli C41(DE3). Bacterial cells were cultured at 37° C. to an OD600 of 0.6 and induced with IPTG (final 0.1 mM) at 18° C. over night. The GST fusion proteins were extracted from bacteria pellets after cell disruption in 140 mM NaCl, 2.7 mM KCl, 10 mM NaH2PO4, 1.8 mM KH2PO4, 1 mM EDTA, 2 mM MgCl2 pH 7.4 and purified by glutathione-sepharose column chromatography (GE Healthcare), eluting with 50 mM Tris-HCl pH8.0, 10 mM reduced glutathione, 1 mM DTT, 2 mM MgCl2. The eluted proteins were dialysed against 50 mM Tris-HCl pH8.0, 1 mM DTT, 2 mM MgCl2 and concentrated to 10 mg/ml using a Biomax-30 ULTRAFREE-15 centrifugal filter device (Millipore). Purified KRAS protein was loaded with GPPNHP as described elsewhere (Pacold et al., 2000). Loaded protein was then purified by gel filtration on a HiLoad Superdex-75 HR column (GE Healthcare) in 1×PBS pH7.4, 5 mM MgCl2 and concentrated for storage. Protocol for KRas small-molecule screening and affinity measurements by SPR
To a previously immobilized CM5 chip (GE Healthcare BR-1005-30) with anti GST antibody via amine coupling method, GST in channel 1 and GST-human KRas166 (G12V) GPPNHP in channel 2 were immobilised. GST was immobilised between 2,000 and 5,000 Response units. KRAS166 (G12V) was immobilized between 10,000 to 15,000 Response Units. […]
For orientation: Surface plasmon resonance follows binding to a sensor surface in real time, without labels.

Assay [2] relates to DLD1 cells (ATCC CCL-221). Briefly: Cell viability assay, DLD-1 (CellTiter-Glo). It counts as cell-based. The settings on record: Homo sapiens; DLD-1 cells, 72 h, dose response 5, 10, 15, 20 μM. The protocol: DLD1 cells (ATCC CCL-221) are cultured in RPMI-1640 medium plus 10% foetal calf serum and 2 mM L-glutamine at 37° C. 5% CO2. Cells are plated onto white clear bottom 96-well plates (5000 cells/well in 200 μl media) and left to adhere overnight at 37° C., 5% CO2. Next day, test compound (1 μl at 200× concentration in 100% DMSO) is added to give final test compound concentration 1× in 0.5% DMSO. After 72 h of incubation at 37° C. 5% CO2, 20 μl CellTiter-Glo reagent (Promega G7572) is added into each well. Plates are incubated at room temperature with shaking for 30 min and then luminescence is read using a PheraStar plate reader. The concentration of compounds that decrease cell viability by 50% is calculated from dose response curves generated using Dotmatics data analysis software Results
(In general: In ATP-based viability assays light output follows the ATP content of the culture.)

For assay [3], the target named is T1, GST-human KRas166 (G12V) GPPNHP. Briefly: KRas small-molecule screening by SPR (BIACORE T200). It counts as binding. Set-up: made in house; host or cells: E. coli C41(DE3); key: SPR response units (RU). Conditions: compounds at final concentration of 100 uM; immobilised KRAS166 (G12V) GPPNHP; no unit printed (method speaks of response units). How it is done: as §1
To a previously immobilized CM5 chip (GE Healthcare BR-1005-30) with anti GST antibody via amine coupling method, GST in channel 1 and GST-human KRas166 (G12V) GPPNHP in channel 2 were immobilised. GST was immobilised between 2,000 and 5,000 Response units. KRAS166 (G12V) was immobilized between 10,000 to 15,000 Response Units.
In a 96 well plate, compounds were diluted in […], 5 mM MgCl2 and 5% DMSO Buffer to a final concentration of 100 uM. DCAI was used as positive control. Experiment also included a solvent correction curve for 5% DMSO. Screening and evaluation of the protein immobilization and the compounds screening was done accordingly to the BIACORE T200 control and evaluation software.
Calculations for how many response units are required for a 1:1 ratio of compound/protein interaction are shown below. • Protein immobilisation: 10,000 RU; average fragment 300 Da in size. Rmax=(MWA/MWL)×RL×SM • MWA is the molecular weight of the analyte in Da • MWL is the molecular weight of the ligand in Da • RL is the immobilization level in RU • SM is the molar stoichiometry (assume 1:1) • Rmax=300/47,500×10,000×1 • Rmax=63 RU. BRET2 Cell Assay

The test system of the next assay is RASG12D/CRAF FL. Briefly: BRET2 cell assay with BRET-based RAS biosensor (RAS-effector) in HEK293T. Conditions: 10 uM compound, 20 hours. How it is done:
650,000 HEK293T were seeded in each well of a 6 well plate. 24 hours later, cells were transfected with an appropriated BRET-based RAS biosensor (i.e. RAS-effector) using Lipofectamine 2000 transfection reagent (Thermo-Fisher). Cells were detached 24 hours later and washed with PBS and seeded in a white 96 well plate (clear bottom, PerkinElmer, cat #6005181) in OptiMEM no phenol red medium (Life Technologies) complemented with 4% FBS. Cells were left for 4 hours at 37° C. before adding compounds. Stock compounds were held at 10 mM in 100% DMSO and diluted in OptiMEM no red phenol+4% FBS to reach 10× the final concentration (2% DMSO for each concentration). The final concentrations in the cells were 0, 5, 10 and 20 μM (therefore the intermediate 10× concentrations were 0, 50, 100 and 200 μM. 10 μL of 10× compounds were added in each well of the 96 well plate to 0, 5, 10 and 20 μM final concentrations (with final 0.2% DMSO each). Quadruplicates were performed for each point. Cells were left for an additional 20 hours at 37° C. before the BRET2 signal reading directly after addition of Coelenterazine 400a substrate (10 μM final) to cells (Cayman Chemicals, cat #16157). BRET2 reading was carried out on an Envision instrument (2103 Multilabel Reader, PerkinElmer) with the BRET2 Dual Emission optical module (515 nm±30 and 410 nm±80; PerkinElmer).
(In general: Bioluminescence resonance energy transfer reports proximity on the nanometre scale.)

As usually defined, the IC50 is the point on the concentration scale where inhibition reaches its midpoint.

On to `COc1cccc(-c2ccc(Nc3ccc(C(=O)NCC4CCN(C(=O)OC(C)(C)C)CC4)cc3)cc2)c1` [Example 19], for which the SPR in assay [1] is 33.

Consider `COc1cccc(-c2ccc(Nc3ccc(CN(C)C)cc3)c(OC)c2F)c1` [Example 3, N-(4-((dimethylamino)methyl)phenyl)-2-fluoro-3,3′-dimethoxy-[1,1′-biphenyl]-4-amine], for which half-maximal inhibition in assay [2] (IC50) was put at 4.5 µM. The same compound came in with an SPR in assay [3] of 177. Besides, in the assay on RASG12D/CRAF FL, the “BRET RASG12D/CRAF FL % Inhibition (10 uM)” value worked out at 26%.

The values above are taken from patent US11970469B2 (Oxford University Innovation Limited, priority 2018, dated 2024).
